Test results from PubChem BioAssay (NCI).
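Tested at 5 concentrations; 48 h exposure; 96-well plates; endpoints linearly interpolated, else capped at highest concentration. GI50 marks 50% less growth. TGI: total growth inhibition.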

Experiments:
Test in all cases: NCI anticancer screen, dose series, 48 h
ACHN renal = tested on: ACHN renal
COLO 205 colon = tested on: COLO 205 colon
DU-145 prostate = tested on: DU-145 prostate
HL-60(TB) leukemia = tested on: HL-60(TB) leukemia
HT29 colon = tested on: HT29 colon
OVCAR-4 ovarian = tested on: OVCAR-4 ovarian
OVCAR-5 ovarian = tested on: OVCAR-5 ovarian
UACC-62 melanoma = tested on: UACC-62 melanoma

Row | Compound | GI50 (ACHN renal) | TGI (ACHN renal) | GI50 (COLO 205 colon) | TGI (COLO 205 colon) | GI50 (DU-145 prostate) | TGI (DU-145 prostate) | GI50 (HL-60(TB) leukemia) | TGI (HL-60(TB) leukemia) | GI50 (HT29 colon) | TGI (HT29 colon) | GI50 (OVCAR-4 ovarian) | TGI (OVCAR-4 ovarian) | GI50 (OVCAR-5 ovarian) | TGI (OVCAR-5 ovarian) | GI50 (UACC-62 melanoma) | TGI (UACC-62 melanoma)
1 | COC(=O)Nc1nc2ccc(S(=O)(=O)c3ccc(NC(=O)Nc4cc(C(F)(F)F)ccc4F)cc3)cc2[nH]1 | > 25 µM | > 25 µM | > 25 µM | > 25 µM | > 25 µM | > 25 µM | > 25 µM | > 25 µM | > 25 µM | > 25 µM | > 25 µM | > 25 µM | > 25 µM | > 25 µM | > 25 µM | > 25 µM
2 | O=[N+]([O-])c1cc2c(ccc3occc32)o1 | 0.561 µM | 8.03 µM | 1.57 µM | 3.12 µM | 1.16 µM | 9.84 µM | 1.59 µM | 6.09 µM | 2.45 µM | 18.8 µM | 27.2 µM | > 100 µM | 3.5 µM | 15.4 µM | 1.45 µM | 3.41 µM
3 | CN(C)c1ncnc2c1ccn2C1OC(CO)C(O)C1O (stereo not drawn) | 3.18 µM | > 100 µM | 18.8 µM | > 100 µM | 0.386 µM | 2.94 µM | 0.316 µM | 1.89 µM | 1.47 µM | > 100 µM | 2.02 µM | 38.4 µM | 5.51 µM | > 100 µM | > 100 µM | > 100 µM
4 | CCCCN(CCCC)CCC(O)c1cc2ccc(C(F)(F)F)cc2c2cc(C(F)(F)F)ccc12 (stereo not drawn) | 2.94 µM | 12.6 µM | 1.62 µM | 3.33 µM | 6.15 µM | 18.7 µM | 1.44 µM | 3.42 µM | 2 µM | 4.41 µM | 3.5 µM | 13.1 µM | 2.97 µM | 12.8 µM | 2.49 µM | 6.53 µM
5 | CCCC(CCC)C(=O)OCC1(CO)C/C(=C\c2ccc(C(F)(F)F)cc2)C(=O)O1 (stereo not drawn) | 10.5 µM | 22.6 µM | 0.577 µM | 9.37 µM | 13.4 µM | 27.8 µM | 0.308 µM | 8.13 µM | 14.4 µM | 30.6 µM | 17.9 µM | 34.4 µM | 17.1 µM | 31.7 µM | 11 µM | 27.1 µM
6 | CNc1ncc2cc(Oc3ccc(F)cc3F)c(=O)n(C)c2n1 | > 25 µM | > 25 µM | > 25 µM | > 25 µM | > 25 µM | > 25 µM | > 25 µM | > 25 µM | > 25 µM | > 25 µM | > 25 µM | > 25 µM | > 25 µM | > 25 µM | > 25 µM | > 25 µM
7 | CCC(=O)c1c(C(F)(F)F)n([O-])c2ccccc2[n+]1=O | 1.09 µM | 3.13 µM | 2.06 µM | 6.51 µM | 1.59 µM | 3.27 µM | 3.03 µM | > 100 µM | 1.41 µM | 11 µM | 5.65 µM | 31.2 µM | 3.89 µM | 13.1 µM | 1.65 µM | 4.64 µM
8 | CC1=NN(C(=O)c2nn(-c3ccc(Cl)cc3)cc2O)C(=O)C1 | 1.61 µM | > 100 µM | 3.78 µM | > 82.6 µM | 8.08 µM | > 100 µM | 1.17 µM | 7.46 µM | 4.44 µM | > 100 µM | 3 µM | > 100 µM |  | > 78.9 µM | 2.28 µM | > 80.8 µM
9 | C=C1C(=O)O[C@H]2[C@H]1CC/C(CNC(=O)/C=C/c1ccc(Cl)cc1Cl)=C\CC[C@@]1(C)O[C@@H]21 | 1.13 µM | 2.48 µM | 1.14 µM | 2.95 µM | 0.594 µM | 1.89 µM | 0.0256 µM | 0.542 µM | 0.841 µM | 2.49 µM | 1.31 µM | 3.01 µM | 1.85 µM | 4.1 µM | 1.33 µM | 2.9 µM
10 | COc1ccc2c(c1)C=C1CSCC3=Cc4cc(OC)ccc4OC13O2 | 0.863 µM | > 100 µM | 0.292 µM | 0.917 µM | 0.402 µM | > 100 µM | 0.27 µM | 0.801 µM | 0.34 µM | > 100 µM | 1.54 µM | > 100 µM | 0.757 µM | > 100 µM | 0.783 µM | > 100 µM
11 | Cc1c(C(N)=O)sc2c1c(=O)n(Cc1ccccc1)c1nnc(S(=O)(=O)CC(=O)Nc3ccc(Cl)cc3)n21 | 4.63 µM | 20.6 µM | 10.7 µM | 27.5 µM | 7.29 µM | 36.7 µM | 40.7 µM | > 100 µM | 6.82 µM | 26 µM | 1.93 µM | 5.47 µM | 10.9 µM | 52.1 µM | 4.21 µM | 18.7 µM
12 | COc1cc2c(cc1OCCCCCn1c3ccccc3c3ccccc31)N=C[C@@H]1CCCN1C2=O | 1.74 µM | 3.34 µM | 2.11 µM | 4.57 µM | 2.23 µM | 4.67 µM | 1.72 µM | 4.38 µM | 2.08 µM | 5.29 µM | 3.09 µM | 12.6 µM | 2.42 µM | 5.49 µM | 1.86 µM | 3.8 µM
13 | CN(CCCN(C)CCC1CCCCC1)CCC1CCCCC1 | 4 µM | 14.9 µM | 1.77 µM | 3.27 µM | 8.51 µM | 20.8 µM | 0.319 µM | 8.61 µM | 0.475 µM | 2.37 µM | 3.35 µM | 14.6 µM | 2.98 µM | 10.7 µM | 0.888 µM | 2.39 µM
14 | O=CN1N=C(c2ccc(Nc3ccnc4cc(Cl)ccc34)cc2)CC1c1ccc(Cl)cc1 (stereo not drawn) | 1 µM | > 100 µM | 2.4 µM | > 100 µM | 1.94 µM | > 100 µM | 0.376 µM | > 100 µM | 0.407 µM | 8.5 µM | 6.48 µM | > 100 µM | 6.46 µM | > 100 µM | 0.567 µM | > 100 µM
